Assay results taken from patent US20060095978A1, “Screening assay” (priority 2002, published 2006).

How the values were obtained:
IFN-γ [1] = assay: Serum IFN-γ in OVA257-264 stimulated OT-1 mice (sandwich ELISA); assay type: in vivo, mouse
Description: (§1) OT-1 mice are obtained as described in Hogquist et al., 1994, Cell 76(1)17-27. The animals are maintained in Microvent positive air supply cages (22±1° C., 55±5% relative humidity, 50-70 changes of fresh air/hour and 12 hours day and night cycle) with sawdust bedding. Standard laboratory mouse chow (SNIFF, Soest, Germany) and drinking water is given ad libitum. Groups of two to four, 8-10 weeks old, male or female OT-1 mice weighing between 20-25 g are used for the experiments described. The animals are grouped (4 per group) in type II Macrolon cages one day before the experiment.
(§2) Cells are stimulated as described above and supernatant is harvested after 48 hours. The quantity of cytokines released by T cells into the culture medium after antigen stimulation is assayed by conventional sandwich ELISA. […] Specifically bound cytokines are quantified using biotinylated secondary antibodies JES6-5H4 (anti-IL-2), BVD6-24G2 (anti-IL-4), TRFK4 (anti-IL-5), SXC-1 (anti-IL-10) and XMG1.2 (anti-IFN-γ) followed by extravidin peroxidase and TMB substrate (both from Sigma). Absorption is measured at 450 and 690 nm on a Spectramax 340PC reader (Molecular Devices, Sunnyvale, Calif.). All cytokines are quantified with standard curves obtained with known amounts of recombinant mouse cytokines using SoftMax 3 software. […]

CD69 on CD8+ T cells = assay: CD69 expression on CD8+ T cells of antigen-stimulated OT-1 mice (FACS); assay type: in vivo, mouse
Description: as §1
Doses of 3, 0.3 and 0.1 mg/kg b.w. are administered orally by gavage 2 hours before antigen challenge. […]
(§3) Single cell suspensions of spleen or blood containing approximately 1×10^6 cells in 100 μl of FACS buffer are used for staining. […] Lymphocytes are gated in the FSC/SSC dot blot according to size and granularity and further analyzed for expression of CD8, TCR Vβ5 expression and activation markers. Data are presented as original dot blots or are calculated from dot blots as percentage of cells positively stained for TCR or activation markers within the CD8^+ population.
Data calculated from FACS analysis or serum cytokine determination are given as individual values for each animal. Data are analysed for normal distribution and then the ANOVA test for multiple comparison is applied using SigmaStat software. […]

CD25 on CD8+ T cells = assay: CD25 expression on CD8+ T cells of peptide-stimulated OT-1 mice (FACS); assay type: in vivo, mouse; conditions: 100 μg OVA257-264, after 7 hours
Description: The animals are maintained in Microvent positive air supply cages (22±1° C., 55±5% relative humidity, 50-70 changes of fresh air/hour and 12 hours day and night cycle) with sawdust bedding.

CD8+ T cells = assay: Frequency of CD8+ T cells in blood and spleen of OT-1 mice (FACS); assay type: in vivo, mouse
Description: as §1
Doses of 3, 0.3 and 0.1 mg/kg b.w. are administered orally by gavage 2 hours before antigen challenge. The compound is diluted with solvent (Neoral Placebo) and given in a volume of 0.2 ml. Animals in the control group receive the solvent only. Ovalbumin-derived peptide (OVA257-264, […], >80% purity, piChemie R&D, Graz, Austria) or whole OVA (Sigma) are used as antigens. Both are diluted in PBS and administerd i.p. in a final volume of 0.2 ml. At various time points after OVA257-264 peptide injection about 200 μl blood is withdrawn from the retro-orbital plexus under ether anesthesia. In order to avoid coagulation, blood is collected in EDTA-containing buffer. Mice are killed by cervical dislocation and the spleen is excised. Single cell suspension are prepared in PBS by gently pressing the spleen through a 100 μm cell strainer. Finally, blood and spleen cells are washed with FACS buffer (PBS, 1 g/l EDTA, 1 g/l NaN3, 10% FCS; pH 7.1) and taken up in the same buffer for FACS analysis.
as §3

IL-2 = assay: Serum IL-2 in OVA257-264 stimulated OT-1 mice (sandwich ELISA); assay type: in vivo, mouse
Description: as §1, §2

IFN-γ [2] = assay: Serum IFN-γ in OVA/OVA323-339 stimulated DO11.10 mice (ELISA); assay type: in vivo, mouse; conditions: for IFN-γ level in pg/ml serum after day 0: 3 hours after first i.p. injection; for IFN-γ level in pg/ml serum after day 14: 3 hours after second i.p. injection
Description: Groups of six, 8-10 weeks old, male or female DO11.10 mice weighing between 20-22 g are obtained as described in Murphy K. M. et al. 1990, Science 250:1720-1722. The animals are maintained in Microvent positive air supply cages (22±1° C., 55±5% relative humidity, 50-70 changes of fresh air/hour and 12 hours day and night cycle) with sawdust bedding. Standard laboratory mouse chow (SNIFF, Soest, Germany) and drinking water is given ad libidum. The animals are used for the study after an adaptation period of 10-14 days and grouped (6 per group) in type II Macrolon cages one day before the experiment.
Groups of six DO11.10 mice are i.p. injected with 10 μg of ovalbumin (OVA, Sigma, St. Louis, USA) absorbed to 2 mg of Al(OH)3 (Alu Gel S; 2% Al(OH)3, Serva, Heidelberg, FRG) and diluted with saline to a volume of 0.2 ml or various amounts (1, 3, 10, 30, or 90 μg per mouse) of alum-precipitated OVA323-339 peptide (98% purity, piChem R&D, Graz Austria) in 0.2 ml on days 0 and 14. Before and at different time points on days 0 and 14 after the OVA or OVA323-339 peptide administration about 200 μl of blood are collected by puncture of the retro-orbital plexus under ether anesthesia.
The sera are collected and stored frozen at −20° C. until analyzed. […]
Murine IL-2, IFN-γ and IL-4 are analyzed by immunoassays (Quantikine R&D Systems, Minneapolis, Minn., USA). Results are expressed as pg per ml serum expressed as mean±SEM pg of the cytokine indicated per ml serum. Test and control groups are evaluated by Dunn test by Kruskall-Wallis One Way Anova using the SigmaStat® program. […]
Mice of the control group are injected with alum. Blood is collected before and at 2, 4, and 6 hours after the first peptide injection. INF-γ is determined in the sera by an ELISA. Results are expressed as mean pg per ml serum±SEM. […]

Splenocytes of OT-1 mice [3] = assay: Cytokine production assay, OT-1 splenocytes; assay type: cell-based, mouse; conditions: high amounts of OVA protein
Description: Cells are stimulated as described above and supernatant is harvested after 48 hours. The quantity of cytokines released by T cells into the culture medium after antigen stimulation is assayed by conventional sandwich ELISA. Microtiter plates (Nunc-Immunoplate™) are coated with the cytokine-specific capture antibodies JES6-1A12 (anti-IL-2), 11B11 (anti-IL-4), TRFK5 (anti-IL-5), JES5-2A5 (anti-IL-10) or R4-6A2 (anti-IFN-γ) at 4° overnight. Supernatants are incubated on the coated plates for 2 hours. Specifically bound cytokines are quantified using biotinylated secondary antibodies JES6-5H4 (anti-IL-2), BVD6-24G2 (anti-IL-4), TRFK4 (anti-IL-5), SXC-1 (anti-IL-10) and XMG1.2 (anti-IFN-γ) followed by extravidin peroxidase and TMB substrate (both from Sigma). Absorption is measured at 450 and 690 nm on a Spectramax 340PC reader (Molecular Devices, Sunnyvale, Calif.). All cytokines are quantified with standard curves obtained with known amounts of recombinant mouse cytokines using SoftMax 3 software. All mAbs and recombinant mouse cytokine standards are purchased from BD PharMingen, Heidelberg, Germany.

Splenocytes of OT-1 mice [4] = assay: T cell proliferation assay, OT-1 splenocytes; assay type: cell-based, mouse; conditions: high amounts of OVA protein
Description: Splenocytes (4×10^5 cells/well) of OT-1 mice are stimulated in 200 μl final volume in 96-well flat bottomed plates with titrated amounts of OVA or OVA257-264 peptide at 37°. As medium RPMI 1640 supplemented with 10% FCS, 2.0 g/l NaHCO3, 2 mM L-glutamin, 100 IU/ml penicillin, 100 μg/ml streptomycin and 5×10^−5 M β-mercaptoethanol (Sigma, Vienna, Austria) is used. After 48 hours, cells are pulsed with 0.5 μCi ^3H-thymidine for 8 hours and the incorporated radioactivity is measured on a liquid scintillation β-counter (Trilux, 1450 Microbeta, Wallac, Turku, Finland).

[5] = peptide-induced activation in OT-1 mice

Q: With “OVA257-264: peptide derived from chicken ovalbumin containing amino acids from position 257 to 264” as the molecule, how does the “time of early peak of serum IFN-γ” value (IFN-γ [1]; [5]) read?
A: Its value is 4 h.

Q: And the “minimal amount required to induce significant serum quantities of IFN-γ” value (IFN-γ [1]; per animal, i.p., 4 hours)?
A: Its value is 30 µg.

Q: What about the “maximal up-regulation of CD69” value (CD69 on CD8+ T cells; 100 μg OVA257-264, after 3 hours) of the same molecule?
A: Its value is “ca. 155 fold increase”.

Q: What about the “maximal up-regulation of CD25” value (CD25 on CD8+ T cells) of the same molecule?
A: The value was “ca. 40 fold increase”.

Q: What about the “change of CD8+ T cells in the spleen” value (CD8+ T cells; 100 μg OVA257-264 i.p.) of the same molecule?
A: Its value is “no significant decrease”.

Q: And the “frequency of CD8+ expressing cells among the lymphocyte population in the blood” value (CD8+ T cells; 100 μg OVA257-264 i.p., within 3 hours, from around 30%)?
A: Its value is “less than 2.5%”.

Q: And the “time of early peak of serum IL-2” value (IL-2; [5])?
A: Its value is 4 h.

Q: What about the “minimal amount required to induce significant serum quantities of IL-2” value (IL-2; per animal, i.p., 4 hours) of the same molecule?
A: The value was 30 µg.

Q: Which results are given for “p/p: 10 μg OVA323-339 peptide/10 μg OVA323-339 peptide i.p. on days 0 and 14 (KISQAVHAAHAEINEAG; UniProt P01012 323-339, looked up, fragment)”?
A: IFN-γ level in pg/ml serum after day 0 (IFN-γ [2]): 483.215 ± 134.641 pg/mL; IFN-γ level in pg/ml serum after day 14 (IFN-γ [2]): 554.136 ± 110.652 pg/mL

B1: OVA: chicken ovalbumin (protein, UniProt P01012 2-386, looked up)
Ovalbumin: GSIGAASMEFCFDVFKELKVHHANENIFYCPIAIMSALAMVYLGAKDSTRTQINKVVRFDKLPGFGDSIEAQCGTSVNVHSSLRDILNQITKPNDVYSFSLASRLYAEERYPILPEYLQCVKELYRGGLEPINFQTAADQARELINSWVESQTNGIIRNVLQPSSVDSQTAMVLVNAIVFKGLWEKAFKDEDTQAMPFRVTEQESKPVQMMYQIGLFRVASMASEKMKILELPFASGTMSMLVLLPDEVSGLEQLESIINFEKLTEWTSSNVMEERKIKVYLPRMKMEEKYNLTSVLMAMGITDVFSSSANLSGISSAESLKISQAVHAAHAEINEAGREVVGSAEAGVDAASVSEEFRADHPFLFCIKHIATNAVLFFGRCVSP
Q: For B1, which “cytokine release of OT-1 splenocytes in vitro” value (Splenocytes of OT-1 mice [3]) is on record?
A: Its value is “cytokine release”.

Q: And the “serum INF-γ levels after challenge with OVA-protein” value (IFN-γ [2]; given amount (10 μg) of OVA-protein)?
A: Its value is “under the detection limit”.

Q: What about the “INF-γ levels after second OVA exposure versus before” value (IFN-γ [2]; primary OVA, second OVA exposure 2 weeks later) of the same molecule?
A: Its value is “fail to increase”.

Q: What about the “serum INF-γ levels versus alum alone” value (IFN-γ [2]; primary sensitization with 10 μg of OVA) of the same molecule?
A: Its value is “does not change”.

Q: What about the “proliferation of OT-1 splenocytes in vitro” value (Splenocytes of OT-1 mice [4]) of the same molecule?
A: Its value is “induce proliferation”.

Q: What about the “increase of CD69 expression in the spleen” value (CD69 on CD8+ T cells; 1 mg OVA i.p., late (7-24 hours)) of the same molecule?
A: The value was ≤ 2.5 fold.

Q: What about the “frequency of CD8+ T cells in both spleen and blood” value (CD8+ T cells; 1 mg OVA i.p., over 48 hours) of the same molecule?
A: The value was “declines marginally”.

B2: o/o: 10 μg OVA/10 μg OVA i.p. on days 0 and 14 (protein, UniProt P01012 2-386, looked up)
Ovalbumin: GSIGAASMEFCFDVFKELKVHHANENIFYCPIAIMSALAMVYLGAKDSTRTQINKVVRFDKLPGFGDSIEAQCGTSVNVHSSLRDILNQITKPNDVYSFSLASRLYAEERYPILPEYLQCVKELYRGGLEPINFQTAADQARELINSWVESQTNGIIRNVLQPSSVDSQTAMVLVNAIVFKGLWEKAFKDEDTQAMPFRVTEQESKPVQMMYQIGLFRVASMASEKMKILELPFASGTMSMLVLLPDEVSGLEQLESIINFEKLTEWTSSNVMEERKIKVYLPRMKMEEKYNLTSVLMAMGITDVFSSSANLSGISSAESLKISQAVHAAHAEINEAGREVVGSAEAGVDAASVSEEFRADHPFLFCIKHIATNAVLFFGRCVSP
Q: How did the “IFN-γ level in pg/ml serum after day 0” value (IFN-γ [2]) turn out when B2 was run?
A: The value was 3.788 ± 1.495 pg/mL.

Q: And the “IFN-γ level in pg/ml serum after day 14” value (IFN-γ [2])?
A: The value was 6.796 ± 6.189 pg/mL.
